# Experimental data reported in patent publication EP2565188A1, “Novel photoactivatable paclitaxel derivatives and uses thereof, in particular in cellbiology and cancer treatment” (Max-Planck-Gesellschaft zur Förderung der Wissenschaften …, priority 2011, dated 2013).
# Assays:
# [1] = Solubility test of 10 µM solutions in 1:1000 DMSO:PIPES buffer; format: physicochemical
# Method: 10 mM solutions of PTX derivatives in DMSO were prepared. All substances were soluble in DMSO at this concentration. 10 µM solutions of were obtained by 1:1000 dilution of the stock solution into 80 mM PIPES buffer pH 6.8, containing 2 mM MgCl2 and 1 mM EGTA. Table A: solubility test of 10 µM solutions of PTX derivatives in 1:1000 DMSO:PIPES buffer
# [2] = Photocleavage study: irradiation at 360 nm, composition by HPLC; format: physicochemical; conditions: 1 mM, 5% water in acetonitril, share of the labelled species
# Method: The photolysis of the compounds 2'-Nvoc-PTX and 2',7-bisNvoc-PTX was followed by UV and HPLC analysis of the correspondent solutions after exposure to light at λmax = 360 nm (2.7 mW/cm^2).
# 3 ml of a 1 mM solution of caged PTX in acetonitrile containing 5% water was placed into a quartz cuvette and was exposed at 360 nm for different irradiation times. Aliquots of 50 µl were taken after various irradiation times, and each aliquot was splitted in two parts. 20 µl were diluted to 400 µl to obtain 50 µM solution for UV-Vis characterisation. The 30 µl left from each aliquot were injected into the HPLC (20 µl loop, analytical column) in order to estimate the composition of the irradiated mixture.
# Photocleavage of compound 2',7-bisNvoc-PTX was expected to yield the mono-substituted species 2'-Nvoc-PTX and 7-Nvoc-PTX as intermediates that can be further photolyzed to afford free PTX. In fact, HPLC analysis (Fig. 1) confirmed the presence of 2'-Nvoc-PTX (retention time, r.t.= 16.7 min) and 7-Nvoc-PTX (r.t. = 18.2 min) together with the starting compound 2',7-bisNvoc-PTX (r.t. = 21.3 min) and the fully deprotected PTX (r.t. = 11.1 min). The ratio of these compounds within the composition of the irradiated mixture changes with the exposure dose. Fig. 2 and Table B below show the compositional evolution of the mixture with increasing irradiation time as obtained by HPLC analysis. […] However, the influence of other structural factors in the photolytic mechanism cannot be ruled out. Compound 7-Nvoc-PTX could also be isolated from the irradiated mixture in milligram scale. Table B. Molar composition of a solution of 2',7-bisNvoc-PTX (1 mM, 5% water in acetonitril) after different irradiation times, as determined by analysis of HPLC graphs (Fig. 2)
# HeLa cells [3] = format: cell-based, Human; conditions: 48 h
# Method: (§1) Human cervix carcinoma cells, HeLa cells (#ACC57, DMSZ, Germany), were cultured in DMEM medium (Invitrogen) supplemented with 10% fetal calf serum (FCS, Gibco) in a humidified incubator at 37°C/5%CO2.
# In order to evaluate the bioactivity of the caged PCT derivatives, their cytotoxicity was tested in vitro using HeLa cells. Cells were incubated with PTX and caged PTX derivatives at concentrations between 0.01 and 10 µM.
# The effect of PTX and derivatives on cell vitality was measured in a combined assay determining cytotoxicity and cell number by propidium iodide (PI) staining. HeLa cells (2x10^4 cells/well) were diluted in cell culture medium (DMEM, 10 % FCS) and seeded in 96 well-plates (black plate, clear bottom, corning, Amsterdam, Netherlands). The culture medium was replaced after ~16h by compound supplemented medium (200 µL, DMEM, 10 % FCS, 1 % DMSO) or medium without compound (DMEM, 10 % FCS, 1 % DMSO) as a specific control. After 48 h, dead cells with permeable cell membranes were stained with PI ([…], 15 min at 37°C, 5% CO2) and the PI fluorescence intensity was measured with a fluorescence plate reader (excitation wavelength 530 nm, emission wavelength 620 nm, Tecan Infinite M1000, Austria). Subsequently, the cells were lysed with 2% Triton X-100 diluted in DMEM (0.3% Triton X-100 per well, 15 min at 37°C, 5% CO2 and the PI fluorescence was measured again. The vitality of the cells was calculated by the ratio of dead cells (DC) before lyses and the total cell number (TCN) after lyses (1-DC/TCN).
# HeLa cells [4] = assay: Live cell imaging of the microtubule network (Tubulin Tracker / DRAQ5, CLSM); format: cell-based, Human; conditions: 24 h
# Method: as §1
# In order to visualize the influence of the PTX derivatives in the microtubule network of the cell, a live cell microscopy analysis of HeLa cells after incubation with 10 µM PTX derivatives for 24 hours was performed.
# Specifically, microtubules and nuclei of HeLa cells were fluorescently stained with Tubulin Tracker (Invitrogen) and DRAQ5 (biostatus, United Kingdom) respectively, and imaged by a Leica TCS SP5 confocal laser scanning microscopy (CLSM). 30x10^4 HeLa cells were seeded in 8-well chamber slides (Lab-Tek, nunc, Germany) and the culture medium was replaced after ~16 h by compound supplemented medium (250 µL, DMEM, 10% FCS, 1% DMSO) or medium without compound (DMEM, 10% FCS, 1% DMSO) as a specific control. After 24h, cells were carefully washed with Hank's Buffered Saline Solution (HBSS, with Ca^2+ and Mg^2+, Invitrogen) and the buffer was replaced by a staining solution containing 250 nM Tubulin Tracker (Invitrogen) and 5 µM DRAQ5. The cells were stained for 30 min at 37°C/5% CO2 in a humidified incubator. The staining solution was replaced by HBSS and the cells were directly imaged with a 100x plan apochromat (1.4 NA) oil immersion objective on the CLSM system equipped with a CO2 incubator and a temperature control. Tubulin Tracker was excited with an argon laser (488 nm) and the emission was detected by 500-580 nm. DRAQ5 was excited with a HeNe laser (633 nm) and the emission was detected by 650-730 nm. The images have a voxel height and width of 90 nm. Bright field images grabbed with an Olympus IX-70 inverted microscope with a 20x phase contrast objective. Image processing performed with Leica LAS AF lite and ImageJ (Fiji).
structure (smiles),measurement,setting,value
"CC(=O)O[C@H]1C(=O)[C@@]2(C)[C@H]([C@H](OC(=O)c3ccccc3)[C@]3(O)C[C@H](OC(=O)[C@H](O)[C@@H](NC(=O)c4ccccc4)c4ccccc4)C(C)=C1C3(C)C)[C@]1(OC(C)=O)CO[C@@H]1C[C@@H]2O [PTX, Paclitaxel]",solubility test (appearance of solution),"[1]; 10 µM in 1:1000 DMSO:PIPES buffer (80 mM, pH 6.8), time 1 hr",clear solution
same,solubility test (appearance of solution),"[1]; 10 µM in 1:1000 DMSO:PIPES buffer (80 mM, pH 6.8), time 8 hrs",clear solution
same,solubility test (appearance of solution),"[1]; 10 µM in 1:1000 DMSO:PIPES buffer (80 mM, pH 6.8), time 24 hrs",Suspension
same,solubility test (appearance of solution),"[1]; 10 µM in 1:1000 DMSO:PIPES buffer (80 mM, pH 6.8), time 30 hrs",white precipitate
same,solubility test (appearance of solution),"[1]; 10 µM in 1:1000 DMSO:PIPES buffer (80 mM, pH 6.8, 2 mM MgCl2, 1 mM EGTA), time 5 min",clear solution
same,"Molar composition of a solution of 2',7-bisNvoc-PTX after irradiation","[2]; 360 nm (2.7 mW/cm^2), irradiation time 0 min",0%
same,"Molar composition of a solution of 2',7-bisNvoc-PTX after irradiation","[2]; 360 nm, irradiation time 60 min",0%
same,"Molar composition of a solution of 2',7-bisNvoc-PTX after irradiation","[2]; 360 nm, irradiation time 270 min",1.7%
same,"Molar composition of a solution of 2',7-bisNvoc-PTX after irradiation","[2]; 360 nm, irradiation time 450 min",6.0%
same,"Molar composition of a solution of 2',7-bisNvoc-PTX after irradiation","[2]; 360 nm, irradiation time 570 min",10.6%
same,"Molar composition of a solution of 2',7-bisNvoc-PTX after irradiation","[2]; 360 nm, irradiation time 735 min",18.5%
same,"Molar composition of a solution of 2',7-bisNvoc-PTX after irradiation","[2]; 360 nm, irradiation time 820 min",21.2%
same,"Molar composition of a solution of 2',7-bisNvoc-PTX after irradiation","[2]; 360 nm, irradiation time 1585 min",60.5%
same,concentration at which cell vitality is significantly reduced,HeLa cells [3],0.1 µM
same,cell morphology / mitosis in microscopy images,HeLa cells [4]; 10 µM,mitosis of HeLa cells was blocked
same,microtubule staining by Tubulin Tracker (fluorescence CLSM),HeLa cells [4]; 10 µM,absence of the mitotic spindle stained with Tubulin Tracker
same,concentration triggering the multiple nuclei pattern,HeLa cells [4]; patterns similar between the compounds (Fig. 6),2 nM
